In patent US20250114356A1, “INDAZOLE BASED COMPOUNDS AND ASSOCIATED METHODS OF USE” (Arvinas Operations, Inc., priority 2020, published 2025):

Assays:
Assay type in all cases: cell-based
[1] = biological target: T1, G2019S LRRK2 (Homo sapiens, UniProt Q5S007, G2019S); assay: LRRK2 degradation assay, G2019S LRRK2-HiBit expressed from plasmid in HEK293 cells; conditions: HEK293 cells transfected with HiBit-tagged G2019S LRRK2, 24 hours compound incubation
T1 construct: expressed in transfected cells; host or cells: HEK293 (ATCC CRL-1573), transient transfection, ubiquitin promoter
T1 sequence (Q5S007 whole entry G2019S): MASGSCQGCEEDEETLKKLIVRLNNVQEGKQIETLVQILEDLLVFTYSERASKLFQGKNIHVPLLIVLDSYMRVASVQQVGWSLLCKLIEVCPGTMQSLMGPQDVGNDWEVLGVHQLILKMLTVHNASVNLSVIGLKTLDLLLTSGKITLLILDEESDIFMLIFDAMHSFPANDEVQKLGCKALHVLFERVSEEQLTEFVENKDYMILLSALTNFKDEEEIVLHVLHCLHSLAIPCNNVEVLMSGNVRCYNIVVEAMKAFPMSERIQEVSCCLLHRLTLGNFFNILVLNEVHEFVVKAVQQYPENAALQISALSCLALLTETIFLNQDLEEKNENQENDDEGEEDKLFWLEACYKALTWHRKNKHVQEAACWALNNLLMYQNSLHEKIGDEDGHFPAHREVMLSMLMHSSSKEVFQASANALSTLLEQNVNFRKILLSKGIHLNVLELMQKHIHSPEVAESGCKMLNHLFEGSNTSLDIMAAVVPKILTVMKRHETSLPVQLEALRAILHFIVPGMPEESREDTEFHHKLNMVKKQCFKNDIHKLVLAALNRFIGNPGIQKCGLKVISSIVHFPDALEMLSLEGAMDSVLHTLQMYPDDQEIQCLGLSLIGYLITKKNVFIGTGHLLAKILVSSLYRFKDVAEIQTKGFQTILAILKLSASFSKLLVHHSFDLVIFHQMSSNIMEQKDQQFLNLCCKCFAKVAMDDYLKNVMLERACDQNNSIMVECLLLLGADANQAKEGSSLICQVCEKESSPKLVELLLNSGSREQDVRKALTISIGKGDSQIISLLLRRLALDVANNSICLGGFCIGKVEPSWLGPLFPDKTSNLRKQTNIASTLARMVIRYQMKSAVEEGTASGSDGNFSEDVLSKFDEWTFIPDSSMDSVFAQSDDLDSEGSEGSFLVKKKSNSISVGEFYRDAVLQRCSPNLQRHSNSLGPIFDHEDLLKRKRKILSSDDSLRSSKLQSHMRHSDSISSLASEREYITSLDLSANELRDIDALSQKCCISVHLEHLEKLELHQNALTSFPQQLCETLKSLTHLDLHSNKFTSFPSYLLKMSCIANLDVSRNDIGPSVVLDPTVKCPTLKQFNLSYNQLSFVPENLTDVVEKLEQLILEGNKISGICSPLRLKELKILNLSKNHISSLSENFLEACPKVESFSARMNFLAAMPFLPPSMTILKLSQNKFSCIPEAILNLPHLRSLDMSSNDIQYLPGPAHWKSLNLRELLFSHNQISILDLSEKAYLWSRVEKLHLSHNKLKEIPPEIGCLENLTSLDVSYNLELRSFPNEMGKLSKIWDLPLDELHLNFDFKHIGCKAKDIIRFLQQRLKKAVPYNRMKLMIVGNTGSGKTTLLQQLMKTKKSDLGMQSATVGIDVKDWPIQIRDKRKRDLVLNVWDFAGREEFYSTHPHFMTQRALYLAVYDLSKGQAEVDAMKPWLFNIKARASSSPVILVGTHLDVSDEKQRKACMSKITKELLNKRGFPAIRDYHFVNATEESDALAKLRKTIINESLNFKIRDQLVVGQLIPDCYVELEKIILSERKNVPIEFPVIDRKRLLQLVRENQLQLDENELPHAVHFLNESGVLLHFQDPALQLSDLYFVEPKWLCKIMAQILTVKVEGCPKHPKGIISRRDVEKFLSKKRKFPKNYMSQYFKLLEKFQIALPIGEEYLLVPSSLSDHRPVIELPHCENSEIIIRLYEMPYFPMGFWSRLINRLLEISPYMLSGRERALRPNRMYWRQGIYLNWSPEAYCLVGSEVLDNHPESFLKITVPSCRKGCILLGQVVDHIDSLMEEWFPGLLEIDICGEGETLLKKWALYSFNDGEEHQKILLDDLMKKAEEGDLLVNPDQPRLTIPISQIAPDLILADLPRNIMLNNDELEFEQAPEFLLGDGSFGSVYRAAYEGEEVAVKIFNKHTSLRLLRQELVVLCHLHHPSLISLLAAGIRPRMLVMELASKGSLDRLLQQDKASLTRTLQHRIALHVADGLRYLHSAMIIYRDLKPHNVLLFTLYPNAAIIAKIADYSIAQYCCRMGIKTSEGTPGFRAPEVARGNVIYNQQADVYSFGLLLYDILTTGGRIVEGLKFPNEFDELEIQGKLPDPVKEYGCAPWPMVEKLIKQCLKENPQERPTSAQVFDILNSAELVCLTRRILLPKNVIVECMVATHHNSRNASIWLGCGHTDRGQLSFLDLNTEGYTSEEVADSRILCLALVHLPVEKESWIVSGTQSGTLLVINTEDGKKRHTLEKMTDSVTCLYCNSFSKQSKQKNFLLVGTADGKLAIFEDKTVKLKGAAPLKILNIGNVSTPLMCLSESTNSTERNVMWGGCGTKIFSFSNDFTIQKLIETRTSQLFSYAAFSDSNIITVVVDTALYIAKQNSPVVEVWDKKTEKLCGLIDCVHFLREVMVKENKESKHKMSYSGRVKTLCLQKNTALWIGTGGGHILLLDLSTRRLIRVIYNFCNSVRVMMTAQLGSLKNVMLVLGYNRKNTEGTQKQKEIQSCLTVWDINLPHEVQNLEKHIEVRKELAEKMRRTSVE
Method in brief: (§1)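 DC50 and Dmax derived from per-plate curve fits of LRRK2-HiBit signal over firefly luciferase (cell number/viability), as % of DMSO median, from 6 replicates across two days. Compound exposure was 24 hours at 37° C. in HEK293 cells transfected with wild-type or G2019S LRRK2 bearing a C-terminal HiBit tag.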

[2] = biological target: T2, wildtype LRRK2 (Homo sapiens, UniProt Q5S007); assay: LRRK2 degradation assay, wildtype LRRK2-HiBit expressed from plasmid in HEK293 cells; conditions: HEK293 cells transfected with HiBit-tagged wildtype LRRK2, 24 hours compound incubation
T2 construct: expressed in transfected cells; host or cells: HEK293 (ATCC CRL-1573), transient transfection, ubiquitin promoter
T2 sequence (Q5S007 whole entry): as the sequence (Q5S007 whole entry G2019S) above, with S2019G counted along it
Method in brief: as §1

[3] = biological target: T3, LRRK2 (endogenous gene tagged with a HiBit sequence) (Homo sapiens, UniProt Q5S007); assay: LRRK2 degradation assay, endogenous LRRK2 gene tagged with HiBit in HEK293 cells; conditions: 24 hours compound incubation
T3 construct: endogenous in cells; host or cells: HEK293 with a HiBit knock-in at the endogenous LRRK2 locus, stably expressing firefly luciferase
T3 sequence (Q5S007 whole entry): as the sequence (Q5S007 whole entry G2019S) above, with S2019G counted along it
Procedure: The assay measures the degradation of LRRK2 in cells where the C-terminus (3′) of the endogenous gene has been tagged with a HiBit sequence in HEK293 cells. The cells also express firefly lucisferase, expressed from a Cytomegalovirus promoter and introduced into the HiBit tagged cells and stably expressed. The Nano-Glo® Dual Luciferase Reporter Assay System (Promega™, Madison, WI) was utilized.
Day 1—Preparation of Compound and Assay Plates. Two sets of plates were prepared: a triplicate set for the HiBit assay in white 384-well plates and a triplicate set of plate in black 384-well plates for the Alamar Blue cell viability assay. Briefly, the growth media (DMEM+Glutamax-10% fetal bovine serum-1% Penicillin-Streptomicin) from two T128 flasks was aspirated from the flasks. Cells were washed with Dulbecco's Phosphate Buffered Saline (dPBS) and aspirated. Trypsin (3 mL per flask) was added and the flasks were incubated for 2-3 minutes.
Ten mL of OptiMEM-10% fetal bovine-1% penicillin-streptomycin (hereinafter, “OptiMEM media”) was added to the flask and the cells and transferred to a 50 mL conical tube. A cell count (25 ul of cell into Effendorf vial+25 ul of Trypan Blue Stain) was performed and the cell density adjusted to 15,000 cell/45 μl/well (3.33×10^5/mL) in OptiMEM media.
Forty-five microliters of the cell suspension (15,000 cells) was aliquoted to each well of the white 384-well plate. The plates incubated at room temperature for 10 minutes before being placed in the 37° C.+5% CO2 incubator overnight
Day 2—Compound Treatment. Exemplary compounds were prepared at a 1 mM starting concentration and 1:3 serial dilution for 11 points CRC prepared and stored in the freezer. The Master Compound Plate was thawed overnight at room temperature. DMSO (20 μL) was added into column 24 of the Master Compound Plate for negative control and 20 μL of 300 μM of Exemplary Compound 4 in column 23 as positive control.
Intermediate Compound Plate with 4% DMSO in OptiMEM Media. DMSO was added to warm OptiMEM media to achieve a 4% DMSO solution (approximately 50 mL/plate). One-hundred microliters of the OptiMEM-4% DMSO was aliquoted to each well of 384-Well Deep Well Microplates.
The Master Compound Plate and the Intermediate Compound Plate were spun down.
One microliter of compound from the Master Compound Plate was transferred into the Intermediate plate (a 1:100 dilution). […]
Day 3—HiBit Assay. […] Fluorescence of each plate was read on a plated reader for the Alamar Blue viability assay. […]
The One Glo luciferase mixture was prepared. […] The luminescence of each plate was read on a plate reader.
1:100 DLR substrate and 1:100 LgBiT Protein dilution were added to the Promega Stop and Glo buffer and mixed just before addition to assay plates. […] The luminescence of each plate was read on a plate reader. […]

DC50 [1]: 0.01 to 0.05 µM
Dmax [1]: 50 to 70%
Dmax ([2]; read-out: **WT Dmax (%)): 50 to 70%
DC50 ([2]; read-out: *WT DC50): < 0.01 µM
Dmax ([3]; read-out: **Endogenous WT Dmax (%)): 50 to 70%
DC50 ([3]; read-out: *Endogenous WT DC50): < 0.01 µM
Compound: C[C@H]1CN(c2cc(-c3n[nH]c4ccc(OC5(C)CC5)cc34)ncn2)CCN1CCOCCOCCOCCOc1ccc2c(c1)C(=O)N(C1CCC(=O)NC1=O)C2=O (stereo partly drawn) [compound 4, 2-(2,6-dioxopiperidin-3-yl)-5-{2-[2-(2-{2-[(2S)-2-methyl-4-{6-[5-(1-methylcyclopropoxy)-1H-indazol-3-yl]pyrimidin-4-yl}piperazin-1-yl]ethoxy}ethoxy)ethoxy]ethoxy}-2,3-dihydro-1H-isoindole-1,3-dione]
